{"source": "patent EP4309654A1", "about": "“INDOLE-3-CARBINOL IN COMBINATION WITH IBRUTINIB FOR THE TREATMENT OF B LYMPHOID NEOPLASMS” (Consejo Superior de Investigaciones Científicas (CSIC), priority 2022, dated 2024)", "key": {"[1]": {"settings": "in blood; cited from earlier work"}, "[2]": {"tested_on": "different types of solid tumours", "assay": "Viability of different types of solid tumour cell lines", "assay_type": "cell-based", "settings": "HCC1954, A375P, HCT116, HT1080, pancreatic cancer lines 185 and 354", "source_text": "We studied the effect of I3C alone or in combination with different drugs commonly used in the clinic for the targeted treatment of solid tumours of various origins. We used the ductal breast cancer line HCC1954 and the drug Lapatinib, the melanoma line A375P and the drug Vemurafenib, the colorectal cancer line HCT116 and the drug 5-fluorouracil, the sarcoma line HT1080 and the experimental drug ADC, and two primary pancreatic cancer lines 185 and 354 and the drug Abraxane. Results obtained (Fig. 11) shown that I3C has no effect on different types of solid tumours."}}, "data": [{"smiles": "OCc1c[nH]c2ccccc12", "note": "[I3C, (1H-indol-3-yl)methanol]", "values": [{"measurement": "bioavailability", "setting": "[1]", "result": 22, "unit": "µM"}, {"measurement": "effect on solid tumours (viability)", "setting": "[2]", "result": "no effect"}]}]}
